# Reference: patent publication US11859248B2, “Nucleic acid modification and identification method” (IMBA—INSTITUT FÜR MOLEKULARE BIOTECHNOLOGIE GMBH, priority 2017, dated 2024)
# pEC50: −log10 of the molar value. Like-named read-outs stand apart in the source and are kept apart here.
# Legend:
# mES cells [1] = assay: HPLC analysis of s^4U-incorporation into total RNA of mES cells after metabolic labeling; assay type: cell-based, mouse; details: 100 μM s^4U, 24 h labeling
# Protocol: Analysis of s^4U- or s^6G-incorporation into total RNA following metabolic labeling was performed as previously described by Spitzer et al. (Meth Enzymol. 539, 113-161 (2014)).
# (§1) mES cells were seeded the day before the experiment at a density of 10^5 cells/ml in 10 cm dishes. s^4U-metabolic labeling was performed by incubation of mES cells in standard medium but adding 100 μM s^4U or s^6G (SIGMA) from a 500 mM stock solution in water. During the metabolic labeling, s^4U or s^6G containing medium was exchanged every 3 h. For the uridine chase experiment, s^4U or s^6G containing medium was discarded, cells were washed twice with 1× PBS and incubated with standard medium supplemented with 10 mM uridine (SIGMA). Cells were directly lysed in TRIzol® (Ambion) and RNA was extracted following the manufacturer instructions except that 0.1 mM final concentration of DTT was added during isopropanol precipitation. RNA was resuspended in 1 mM DTT. […]
# We tested the ability of mouse embryonic stem cells to tolerate s^4U metabolic RNA-labeling after 12 h or 24 h at varying s^4U concentrations (FIG. 6A). […] Under these conditions, we detected a steady increase in s^4U-incorporation in total RNA preparation 3 h, 6 h, 12 h, and 24 h post labeling, as well as a steady decrease 3 h, 6 h, 12 h, and 24 h after uridine chase (FIG. 6B). […]
# mES cells [2] = assay: Cell viability assay (CellTiter-Glo) of mES cells cultured with s^4U; assay type: cell-based, mouse; details: for pEC50: Mus musculus, read-out: EC50 of compromised cell viability
# Protocol: 5000 mES cells were seeded per 96 well the day before the experiment. Medium containing different concentrations of s^4U (as indicated) was added to the cells for 12 h or 24 h. Cell viability was assessed by CellTiter-Glo® Luminescent Cell Viability Assay (Promega) according to the instructions of the manufacturer. Luminescent signal was measured on Synergy using Gen5 Software (v2.09.1).
# We tested the ability of mouse embryonic stem cells to tolerate s^4U metabolic RNA-labeling after 12 h or 24 h at varying s^4U concentrations (FIG. 6A). […] Under these conditions, we detected a steady increase in s^4U-incorporation in total RNA preparation 3 h, 6 h, 12 h, and 24 h post labeling, as well as a steady decrease 3 h, 6 h, 12 h, and 24 h after uridine chase (FIG. 6B). As expected, the incorporation follows a single exponential kinetics, with a maximum average incorporation of 1.78% s^4U, corresponding to one s^4U incorporation in every 56 uridines in total RNA (FIG. 6C). These experiments establish s^4U-labeling conditions in mES cells, which can be employed to measure RNA biogenesis and turnover rates under unperturbed conditions.
# mES cells [3] = assay: mRNA 3' end sequencing (Quant-seq/SLAM-seq) of mES cells after s^4U metabolic labeling; assay type: cell-based, mouse
# Protocol: as §1, with “(SIGMA).” for “(SIGMA). Cells were directly lysed in TRIzol® (Ambion) and RNA was extracted following the manufacturer instructions except that 0.1 mM final concentration of DTT was added during isopropanol precipitation. RNA was resuspended in 1 mM DTT.”
# For analysis of mRNA 3′ end sequencing (Quant-seq) datasets, reads were demultiplexed using Picard Tools BamIndexDecoder v1.13 allowing 1 mismatch in the barcode. Five nucleotides at the 5′ end of demultiplexed reads were trimmed. Reads were aligned to mouse genome mm10 and alignments in annotated 3′ UTRs (Gencode) were counted using SLAMdunk (Neumann & Rescheneder, t-neumann.github.io/slamdunk/; Herzog et al., Nature Methods 14, 1198-1204 (2017)). Briefly, SLAMdunk relies on NextGenMap, a flexible and fast read mapping program, and was tailored using an adapted scoring scheme eliminating T>C mismatch penalties for the mapping step. T>C containing reads and non-T>C containing reads aligning to 3′ UTRs were quantified to deduce s^4U- or unlabeled transcript abundance, respectively. […]
# Drosophila S2 cells [4] = assay: Viability of Drosophila S2 cells under s^4U labeling conditions; assay type: cell-based, Drosophila melanogaster; details: 500 μM, 24 h
# Drosophila S2 cells [5] = assay: Small RNA sequencing of Drosophila S2 cells after s^4U metabolic labeling; assay type: cell-based, Drosophila melanogaster
# Protocol: Upon generating libraries from size-selected total RNA of Drosophila S2 cells after s^4U metabolic labeling for 24 hours, we observed a strong accumulation of T>C conversions when compared to libraries prepared from unlabeled cells, as exemplified for the miR-184 locus, which gives rise to an abundantly expressed microRNA, miR-184-3p, and its less abundant miR*, miR-184-5p (FIG. 12A). In order to confirm this observation at the genomic scale, we aligned reads to annotated microRNA loci in the Drosophila genome and inspected the frequency of any given mutation normalized to overall T-content per miRNA (FIG. 12B). In the absence of s^4U metabolic labeling, we observed a median mutation rate of less than 0.1% for any given mutation, a rate that is consistent with Illumina-reported sequencing error rates. (Note, that iodoacetamide treatment of unlabeled total RNA had no detectable impact on small RNA abundance and mutation rate, as determined by high-throughput sequencing. See FIG. 19). After 24 h of s^4U metabolic labeling, we observed a statistically significant (p<10^−4, Mann-Whitney test), 74-fold increase in T>C mutation rates, while all other mutations remained below expected sequencing error rates (FIG. 12B).
smiles,measurement,setting,value
"O=c1[nH]c(=S)ccn1[C@@H]1O[C@H](CO)[C@@H](O)[C@H]1O [s^4U, 4-thiouridine]",maximum average s^4U incorporation in total RNA,mES cells [1],1.78%
same,effect on cell viability,mES cells [2]; 100 μM s^4U,did not severely affect cell viability
same,pEC50,mES cells [2]; 12 h labeling,2.51
same,pEC50,mES cells [2]; 24 h labeling,3.42
same,median s^4U-incorporation in mRNA (3' UTRs),mES cells [3]; 24 h labeling,2.56%
same,increase in T>C mutation rates,mES cells [3]; 24 h labeling vs unlabeled,25 fold
same,effect on cell viability,Drosophila S2 cells [4],do not interfere with cell viability
same,median s^4U-incorporation in miRNAs,"Drosophila S2 cells [5]; 500 μM s^4U, 24 h labeling",2.22%
same,increase in T>C mutation rates,Drosophila S2 cells [5]; 24 h labeling vs unlabeled,74 fold
